Measurements reported in publication PMC9710212 (Chemical Science, 2022).
Each block holds one molecule with its values, some of them ahead of it. Peptide text beside a SMILES is read from it. * marks the point of attachment. Cbz = O=C(OCc1ccccc1)*

What was measured:
PARP1 [1] = target: T1, PARP1 (Homo sapiens, UniProt P09874); assay: PASTA biochemical plate assay
SUMO-PARP16ΔTM = target: T2, SUMO-PARP16ΔTM (Homo sapiens, UniProt Q8N5Y8); assay: Whole-protein electrospray ionization; format: binding; details: 50- or 100-fold excess of HJ-52
T2 sequence (Q8N5Y8 1-287 limits assumed): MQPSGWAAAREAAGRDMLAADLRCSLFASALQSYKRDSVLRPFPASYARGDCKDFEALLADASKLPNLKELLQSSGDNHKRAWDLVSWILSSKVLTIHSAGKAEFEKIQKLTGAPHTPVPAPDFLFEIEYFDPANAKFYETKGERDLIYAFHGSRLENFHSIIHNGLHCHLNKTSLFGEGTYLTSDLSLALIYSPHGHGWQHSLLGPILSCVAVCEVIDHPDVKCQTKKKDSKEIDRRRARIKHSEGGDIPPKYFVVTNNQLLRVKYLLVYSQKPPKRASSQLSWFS

PARP1 [2] = target: T1, PARP1; assay: Cellular PARylation assay in HEK 293T cells; format: cell-based
PARP16ΔTM = target: T3, PARP16ΔTM (Homo sapiens, UniProt Q8N5Y8); assay: in vitro MARylation assay; format: biochemical
T3 sequence (Q8N5Y8 1-287 limits assumed): T2 sequence (Q8N5Y8 1-287 limits assumed)

PARP16 [3] = target: T4, PARP16 (Homo sapiens, UniProt Q8N5Y8); assay: Nutrient starvation; format: cell-based; details: HAP1 WT, HBSS 16 h; for effect on PARP16 levels under amino acid and serum starvation: 10 μM MG132, 1 μM bafilomycin A1, 50 μM chloroquine
T4 sequence (Q8N5Y8 1-322): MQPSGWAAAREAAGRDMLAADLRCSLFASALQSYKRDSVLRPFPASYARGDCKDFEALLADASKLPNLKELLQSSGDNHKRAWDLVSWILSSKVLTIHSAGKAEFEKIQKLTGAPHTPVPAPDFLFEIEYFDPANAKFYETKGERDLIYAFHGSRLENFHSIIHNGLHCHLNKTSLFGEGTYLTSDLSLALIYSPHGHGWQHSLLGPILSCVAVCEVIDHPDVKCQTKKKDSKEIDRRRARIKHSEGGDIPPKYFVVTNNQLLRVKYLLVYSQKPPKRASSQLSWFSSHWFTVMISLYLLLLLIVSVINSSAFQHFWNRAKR

PARP16 [4] = details: cited from earlier work
PARP16 [5] = target: T4, PARP16; assay: In vitro competition assay of DB008 labeling; format: binding; details: 1 μM competitor, 40 min, then DB008 20 min

T1 sequence (P09874 whole entry): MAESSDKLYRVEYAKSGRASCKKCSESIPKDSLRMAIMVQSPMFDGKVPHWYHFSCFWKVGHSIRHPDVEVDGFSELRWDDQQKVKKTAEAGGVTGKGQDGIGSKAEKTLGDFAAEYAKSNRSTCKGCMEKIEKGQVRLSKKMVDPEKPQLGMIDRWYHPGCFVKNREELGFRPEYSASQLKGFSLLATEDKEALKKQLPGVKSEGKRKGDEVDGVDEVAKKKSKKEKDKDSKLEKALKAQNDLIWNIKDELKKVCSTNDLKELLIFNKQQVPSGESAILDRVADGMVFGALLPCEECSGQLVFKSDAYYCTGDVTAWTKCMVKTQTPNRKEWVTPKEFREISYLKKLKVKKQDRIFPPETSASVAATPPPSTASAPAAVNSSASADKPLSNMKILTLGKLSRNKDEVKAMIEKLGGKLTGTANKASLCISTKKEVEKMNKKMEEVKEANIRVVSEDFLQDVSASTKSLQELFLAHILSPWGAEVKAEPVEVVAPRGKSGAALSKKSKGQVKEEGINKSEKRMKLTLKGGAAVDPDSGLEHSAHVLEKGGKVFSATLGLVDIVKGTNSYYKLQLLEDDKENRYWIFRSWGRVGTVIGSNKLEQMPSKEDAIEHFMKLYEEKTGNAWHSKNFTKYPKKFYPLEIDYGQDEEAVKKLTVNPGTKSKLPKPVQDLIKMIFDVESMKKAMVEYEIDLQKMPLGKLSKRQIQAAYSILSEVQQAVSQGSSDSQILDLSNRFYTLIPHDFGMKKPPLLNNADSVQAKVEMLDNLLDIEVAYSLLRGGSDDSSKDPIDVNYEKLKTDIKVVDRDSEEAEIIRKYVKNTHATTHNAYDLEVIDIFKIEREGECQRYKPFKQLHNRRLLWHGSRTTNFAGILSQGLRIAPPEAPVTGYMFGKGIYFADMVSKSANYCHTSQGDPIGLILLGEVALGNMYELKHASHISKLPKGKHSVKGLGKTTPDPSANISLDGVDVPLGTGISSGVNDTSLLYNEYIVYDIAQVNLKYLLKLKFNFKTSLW

- IC50 (PARP1 [1]): 19 nM
- potency against PARP1 relative to olaparib (PARP1 [1]): equipotent
- covalent complex formation with SUMO-PARP16ΔTM (SUMO-PARP16ΔTM): 1 : 1 covalent complex
- potency against PARP1 in cellular PARylation assay (PARP1 [2]): low nanomolar potency
- IC50 (PARP16ΔTM): 1180 nM
- fold more potent against PARP16 than olaparib (PARP16ΔTM): about 2.5 fold
SMILES: C=CC(=O)N1CCN(C(=O)c2cc(Cc3n[nH]c(=O)c4ccccc34)ccc2F)CC1 [HJ-52, 4-(3-(4-acryloylpiperazine-1-carbonyl)-4-fluorobenzyl)phthalazin-1(2H)-one]

- effect on PARP16 levels under amino acid and serum starvation (PARP16 [3]): did not impact PARP16 levels
SMILES: CC(C)C[C@@H](C=O)NC(=O)[C@H](CC(C)C)NC(=O)[C@H](CC(C)C)NC(=O)OCc1ccccc1 [MG132] (Cbz-Leu-Leu-Leu-aldehyde)

SMILES: CO/C1=C\C(C)=C\[C@@H](C)[C@@H](O)[C@@H](C)C/C(C)=C/C=C/[C@H](OC)[C@@H]([C@@H](C)[C@@H](O)[C@H](C)[C@@]2(O)C[C@@H](O)[C@H](C)[C@@H](C(C)C)O2)OC1=O [bafilomycin A1]
- effect on PARP16 levels under amino acid and serum starvation (PARP16 [3]): did not impact PARP16 levels

- effect on PARP16 levels under amino acid and serum starvation (PARP16 [3]): did not impact PARP16 levels
SMILES: CCN(CC)CCCC(C)Nc1ccnc2cc(Cl)ccc12 (centres unmarked) [chloroquine]

- competition of DB008 labeling (PARP16 [5]): ~70%
- effect on PARP16 levels in RIPA-soluble fraction (PARP16 [3]): increased, dose dependently
- effect on starvation-induced increase of PARP16 in RIPA-insoluble fraction (PARP16 [3]): counteracted in a dose-dependent manner
SMILES: Cn1ncnc1[C@H]1c2n[nH]c(=O)c3cc(F)cc(c23)N[C@@H]1c1ccc(F)cc1 [talazoparib]
- inhibition of recombinant PARP16 (PARP16 [4]): sub-micromolar potency
